Common to all, as to assay type: in vivo
In one data set the test system is Phaedon cochleariae. The data set is described as follows: Phaedon cochleariae Larven - Test (sprayed cabbage leaves). The note with it: 144 h, single compound, 6 d, read-out: Mortality in % after 6d. The protocol:
(§1) Solvent: 78 parts by weight of acetone • • 1.5 parts by weight of dimethylformamide Emulsifier: 0.5 parts by weight of alkylaryl polyglycole-ether
(§2) To produce a suitable preparation of active compound, 1 part by weight of active compound is mixed with the stated amount of solvent and emulsifier, and the concentrate is diluted with emulsifier-containing water to the desired concentration.
Cabbage leaves (Brassica oleracea) are treated by being sprayed with the preparation of the active compound at the desired concentration and are infested with larvae of the mustard beetle (Phaedon cochleariae) as long as the leaves are still moist.
After the specified period of time, the mortality in % is determined 100% means that all the beetle larvae have been killed; 0% means that none of the beetle larvae have been killed.

For a further data set, the system named is Myzus persicae. The data set is described as follows: Myzus persicae - Test (sprayed cabbage leaves). The note with it: single compound; for mortality at 500 g/ha / Mortality in % after 6d: 500 g/ha. The protocol:
as §1, §2
Cabbage leaves (Brassica oleracea) which are heavily infested by the green peach aphid (Myzus persicae) are treated by being sprayed with the preparation of the active compound at the desired concentration. After the specified period of time, the mortality in % is determined 100% means that all the aphids have been killed; 0% means that none of the aphids have been killed.

For a further data set, the system named is Tetranychus urticae. The data set is described as follows: Tetranychus urticae - Test (OP-resistant, bean plants). The note with it: 144 h, single compound, 6 d, read-out: Mortality in % after 6d. The protocol:
as §1, §2
Bean plants (Phaseolus vulgaris) which are heavily infested with all stages of the two-spotted spider mite (Tetranychus urticae) are treated by being sprayed with the preparation of the active compound at the desired concentration.
After the specified period of time, mortality in % is determined 100% means that all the spider mites have been killed; 0% means that none of the spider mites have been killed.

A further data set concerns Spodoptera frugiperda. The data set is described as follows: Spodoptera frugiperda - Test (sprayed cabbage leaves). The note with it: 500 g/ha, single compound. The protocol:
as §1, §2
Cabbage leaves (Brassica oleracea) are treated by being sprayed with the preparation of the active compound at the desired concentration and are infested with larvae of the fall army worm (Spodoptera frugiperda) as long as the leaves are still moist.
After the specified period of time, the mortality in % is determined 100% means that all the caterpillars have been killed; 0% means that none of the caterpillars have been killed.

The mark [1] stands for this setting: Myzus persicae, 144 h, 6 d, read-out: Mortality in % after 6d.

Results on ten molecules are retold here after patent publication US20110152079A1, “Pesticidal Compound Mixtures” (BAYER CROPSCIENCE AG, priority 2009, published 2011).

A word on the mortality: it is the share of the test organisms that died. Consider `COCC(=O)N(c1c(C)cccc1C)C(C)C(=O)OC` (stereo not shown) [Metalaxyl], for which the mortality at 500 g/ha in the data set with Phaedon cochleariae (500 g/ha) stood at 0%.

As for `COC(=O)C(C)N(C(=O)Cc1ccccc1)c1c(C)cccc1C` (stereo not shown) [Benalaxyl], in the data set with Myzus persicae (setting [1]), the mortality at 500 g/ha was determined as 0%.

Turning to `O=C(NCc1ncc(C(F)(F)F)cc1Cl)c1c(Cl)cccc1Cl` [Fluopicolide], in the data set with Myzus persicae, the “Mortality in % after 6d” value came to 0%.

Regarding `CC1(C(=O)Nc2ccc(O)c(Cl)c2Cl)CCCCC1` [Fenhexamid], the mortality at 500 g/ha in the data set with Tetranychus urticae and in the data set with Myzus persicae (setting [1]) was 0% each time.

Regarding `CCO[PH](=O)O` [Fosetyl AL], the “Mortality in % after 6d” value in the data set with Myzus persicae is 0%.

As for `CC1(C)[C@H](C=C(Cl)Cl)[C@H]1C(=O)OCc1c(F)c(F)cc(F)c1F` [Transfluthrin], the mortality at 100 g/ha in the data set with Tetranychus urticae (100 g/ha) was determined as 0%. The mortality at 20 g/ha in the data set with Phaedon cochleariae (20 g/ha) turned out to be 50%; in the data set on Myzus persicae (Myzus persicae, 144 h, 20 g/ha, 6 d, read-out: Mortality in % after 6d), 0%.

Regarding `N#Cc1ccccc1NC(=O)c1snc(Cl)c1Cl` [Isotianil], the “Mortality in % after 6d” value with Spodoptera frugiperda amounted to 0%.

Consider `CN(C)C(=S)SSC(=S)N(C)C` [Thiram], for which, in the data set on Myzus persicae (setting [1]), the mortality at 500 g/ha was 0%.

As for `CCCN(CCOc1c(Cl)cc(Cl)cc1Cl)C(=O)n1ccnc1` [Prochloraz], the mortality at 500 g/ha in the data set on Myzus persicae (setting [1]) came out at 0%.

On to `Cc1ccc(N(SC(F)(Cl)Cl)S(=O)(=O)N(C)C)cc1` [Tolyfluanid], for which the mortality at 500 g/ha with Tetranychus urticae was determined as 0%.
